{"source": "paper PMC8280112", "about": "“Substrate reduction therapy for Krabbe disease and metachromatic leukodystrophy using a novel ceramide galactosyltransferase inhibitor” (Scientific Reports, 2021)", "key": {"[1]": {"target": "T1, Recombinant human galactosylceramidase (GALC) (Homo sapiens, UniProt P54803)", "T1 construct": "purchased R&D Systems", "T1 sequence (P54803 43-685)": "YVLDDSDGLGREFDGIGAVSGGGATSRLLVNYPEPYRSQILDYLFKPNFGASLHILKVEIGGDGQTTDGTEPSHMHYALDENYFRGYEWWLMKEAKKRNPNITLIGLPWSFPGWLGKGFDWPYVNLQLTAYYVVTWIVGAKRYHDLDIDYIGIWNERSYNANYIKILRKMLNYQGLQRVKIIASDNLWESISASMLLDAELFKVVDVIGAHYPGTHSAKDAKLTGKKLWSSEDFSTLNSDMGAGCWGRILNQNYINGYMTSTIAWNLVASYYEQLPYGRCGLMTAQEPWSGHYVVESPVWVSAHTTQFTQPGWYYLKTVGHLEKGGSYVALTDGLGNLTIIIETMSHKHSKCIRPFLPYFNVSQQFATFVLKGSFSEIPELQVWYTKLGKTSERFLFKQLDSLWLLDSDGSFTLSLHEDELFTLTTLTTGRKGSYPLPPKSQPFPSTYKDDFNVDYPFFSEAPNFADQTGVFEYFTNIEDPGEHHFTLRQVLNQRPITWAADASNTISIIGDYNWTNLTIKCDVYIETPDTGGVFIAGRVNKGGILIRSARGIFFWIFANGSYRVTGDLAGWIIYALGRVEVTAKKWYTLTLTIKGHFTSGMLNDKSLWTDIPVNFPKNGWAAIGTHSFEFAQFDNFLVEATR", "assay": "Galactosylceramidase assay", "assay_type": "biochemical", "text": "Recombinant human galactosylceramidase (R&D Systems) activity was monitored using the artificial fluorescent substrate 4-methylumbelliferyl-β-D-galactopyranoside (Sigma) using the assay conditions described on the enzyme product datasheet."}, "Twitcher mice": {"tested_on": "Twitcher mice", "assay": "Twitcher mouse brain immunostaining and cytokine analysis", "assay_type": "in vivo", "settings": "0.15 mg/kg IP three times per week, PND3 to PND28", "experimental": "Five sections from a one in four series of sagittal brain sections from each mouse were stained on slides using a modified immunofluorescence protocol for the following antibodies—astrocytes (rabbit anti-GFAP, 1:1000, DAKO Z0334), microglia (rat anti-mouse CD68, 1:400, Bio-Rad MCA1957), and myelin basic protein (MBP) (rat anti-MBP, 1:500, Merck Millipore MAB386). Briefly, 40 µm sagittal sections were mounted on Superfrost Plus slides (Fisher Scientific), air-dried for 30 min, and blocked in 15% normal goat serum solution (Vector Labs, S-1000) in 2% TBS-T (1 × Tris Buffered Saline, pH 7.6 with 2% Triton-X100, Fisher Scientific) for 1 h. Slides were then incubated in primary antibody in 10% serum solution in 2% TBS-T for 2 h. Slides were washed three times in 1×TBS and incubated in fluorescent Alexa-Fluor labelled IgG secondary antibodies (Alexa-Fluor goat anti-rabbit 488, Invitrogen A-11008 and goat anti-rat 546, Invitrogen A-11081) in 10% serum solution in 2% TBS-T for 2 h, washed three times in 1×TBS, and incubated in a 1 × solution of TrueBlack lipofuscin autofluorescence quencher (Biotium, Fremont, CA, #23,007) in 70% ethanol for 2 min before rinsing in 1×TBS. Slides were coverslipped in fluoromount-G mounting medium with DAPI (Southern Biotech). To analyze the glial activation (GFAP-positive astrocytes + CD68-positive microglia) as well as MBP staining of punctate bodies in the cerebellar white matter, a semiautomated thresholding image analysis method was used with Image-Pro Premier software (Media Cybernetics). Briefly, this involved the collection of slide-scanned images at 5 × magnification for a one in four series of 3 sections per animal followed by demarcation of all regions (in this case the white matter of the cerebellum) of interest while maintaining the lamp intensity, video camera setup, and calibration constant throughout image capturing. Images were subsequently analyzed using Image-Pro Premier using an appropriate threshold that selected the foreground immunoreactivity above background. This threshold was then applied as a constant to all subsequent images analyzed per batch of animals and reagent used to determine the specific area of immunoreactivity for each antigen. Image densitometry for the average pixel luminance data was also gathered for MBP staining of the cerebellar white matter due to the higher density of staining. Slide-scanned images at 5 × magnification were collected for a one in forty-eight series of sections per animal followed by collecting the mean luminance data across all pixels from the regions of interest delineated using Image-Pro Premier.\nCytokine/chemokine analyses were performed on the brains from the same animals used for immunofluorescent imaging. […]"}, "[2]": {"tested_on": "GalCer and sulfatide levels", "assay": "PND3 wild-type mouse repeat dose study: LC-MS of GalCer and sulfatide in brain and sciatic nerve", "assay_type": "in vivo", "settings": "wild-type mice", "description": "Animals were euthanized by exsanguinations under deep anesthesia, the brain and sciatic nerve were removed, rinsed in cold saline, dried, and snap frozen for lipid quantification.\nWhole brain was homogenized in 3 volumes H2O (v/w) and further diluted as necessary in H2O. Given the small size, the sciatic nerve weight was recorded and homogenized in a larger fixed volume. 25 µL of diluted homogenate was added to 35 µL DMSO, 200 µL of methanol, and 325 µL acetone/methanol (50/50) and vortexed approximately 30 min. Next, 150 µL water and 300 µL water/methanol (13/87) were added before centrifuging for 5 min at RT at 14,000 rpm. […] supernatant was transferred onto a pre-conditioned C18-SPE cartridge, washed with 2 mL methanol/acetone/water (67/23/10), and eluted with 1.5 mL acetone/methanol (90/10). The eluate was dried before reconstituting with 50 µL DMSO (including N-C16:0-CD3-Glucosylceramide, IS Matreya) and 200 ACN. 3 µL of suspension was injected into LC–MS/MS for analysis. GalCers were separated from isobaric GluCers by Halo-Hilic (4.6 × 150 mm, 2.7 µm) column with a mobile phase of 95/2.5/2.5 ACN/MeOH/H2O (with 0.5 FA + 5 mM NH4OAc) 100% for 9.5 min at 50 °C and a 0.50 mL/min flow rate. Non-hydroxy-GalCer and 2-hydroxy-GalCer were detected using MRM on an LC–MS/MS (Agilent 6410) in positive ESI mode. Purified non-hydroxy-GalCer (Kerasin, Matreya) or 2-hydroxy-GalCer (Phrenosin, Matreya) were used as reference standards. All non-hydroxy-GalCer or 2-hydroxy-GalCer species identified in the reference standards were summed, normalized to the IS, and reported as percentage of vehicle control (Fig. 2B,C). In Supplementary Figure S1, individual acyl chains were identified, normalized to the IS, and plotted as percentage of vehicle control.\nPreviously diluted brain homogenate was serially diluted (10 µL into 90 µL and then 20 µL into 80 µL) in ACN/H2O (v/v 1:1) before being added to 300 µL ACN with IS (N-C18:0-CD3-sulfatide, Matreya). […] Non-hydroxy-sulfatide and 2-hydroxy-sulfatide were detected using MRM on a UPLC-MS/MS-22 (Triple Quad 6500) in positive ESI mode. […]"}, "[3]": {"tested_on": "Sphingomyelin synthase (SMS)", "assay": "Sphingomyelin synthase assay", "assay_type": "biochemical", "settings": "MDCK cell lysate", "description": "100 µL assay buffer (50 mM Tris buffer pH 7.5 containing 25 mM KCl, 0.5 mM EDTA, 10 µM NBD-C6 ceramide, 100 µM DOPC, and 0.01% Tween 80), 60 µg MDCK cell lysate, and serial diluted compounds were incubated at 37 ℃ for 1 h. The reaction was terminated and prepared for LC–MS using the same protocol as the GCS assay, however, a NBD-C6-sphingomyelin (Avanti) reference standard was used to quantify the sphingomyelin synthesis."}}, "data": [{"smiles": "C[C@H]1N(c2ccc(Br)cc2)C(=O)N(c2ccc(Br)cc2)C1(O)c1cccc(OC(F)(F)F)c1", "note": "(stereo partly drawn) [S202]", "values": [{"measurement": "IC50", "setting": "[1]", "result": "> 50", "unit": "µM"}, {"measurement": "CD68-positive macrophages in brain sections", "setting": "Twitcher mice", "result": "trend toward reduction"}, {"measurement": "GROA level in brain homogenates", "setting": "Twitcher mice", "result": "reduced the levels"}, {"measurement": "MCP-1 level in brain homogenates", "setting": "Twitcher mice", "result": "reduced the levels"}, {"measurement": "marker of astrocytosis (GFAP) in brain sections", "setting": "Twitcher mice", "result": "trend toward reduction"}, {"measurement": "GalCer synthesis in the brains", "setting": "[2]; higher doses (> 1.5 mg/kg)", "result": "reduced synthesis of both non-hydroxy-GalCer and 2-hydroxy-GalCer"}, {"measurement": "2-hydroxy-GalCer levels in the brains", "setting": "[2]; lower doses", "result": "consistently increase"}, {"measurement": "non-hydroxy-GalCer levels in the brains", "setting": "[2]; lower doses (0.015 to 0.5 mg/kg)", "result": "greatly decreased"}, {"measurement": "IC50", "setting": "[3]", "result": "> 50", "unit": "µM"}]}]}
